Experimental data published in patent US20230303510A1, “CYCLIZED ACETAMIDO DERIVATIVES AS DNA POLYMERASE THETA INHIBITORS” (Ideaya Biosciences, Inc., priority 2020, published 2023).

Columns and labels:
[1] = biological target: T1, Pol theta polymerase domain (residues 1819-2590) (Homo sapiens, UniProt O75417); test: Primer extension assay (inhibition of polymerase activity of Pol theta, molecular beacon fluorescence); assay type: biochemical; conditions: Pol theta polymerase domain 4 nM; fluorescence change over 30 min
T1 construct: Pol theta polymerase domain (residues 1819-2590) at a final concentration of 4 nM
T1 sequence (O75417 1819-2590): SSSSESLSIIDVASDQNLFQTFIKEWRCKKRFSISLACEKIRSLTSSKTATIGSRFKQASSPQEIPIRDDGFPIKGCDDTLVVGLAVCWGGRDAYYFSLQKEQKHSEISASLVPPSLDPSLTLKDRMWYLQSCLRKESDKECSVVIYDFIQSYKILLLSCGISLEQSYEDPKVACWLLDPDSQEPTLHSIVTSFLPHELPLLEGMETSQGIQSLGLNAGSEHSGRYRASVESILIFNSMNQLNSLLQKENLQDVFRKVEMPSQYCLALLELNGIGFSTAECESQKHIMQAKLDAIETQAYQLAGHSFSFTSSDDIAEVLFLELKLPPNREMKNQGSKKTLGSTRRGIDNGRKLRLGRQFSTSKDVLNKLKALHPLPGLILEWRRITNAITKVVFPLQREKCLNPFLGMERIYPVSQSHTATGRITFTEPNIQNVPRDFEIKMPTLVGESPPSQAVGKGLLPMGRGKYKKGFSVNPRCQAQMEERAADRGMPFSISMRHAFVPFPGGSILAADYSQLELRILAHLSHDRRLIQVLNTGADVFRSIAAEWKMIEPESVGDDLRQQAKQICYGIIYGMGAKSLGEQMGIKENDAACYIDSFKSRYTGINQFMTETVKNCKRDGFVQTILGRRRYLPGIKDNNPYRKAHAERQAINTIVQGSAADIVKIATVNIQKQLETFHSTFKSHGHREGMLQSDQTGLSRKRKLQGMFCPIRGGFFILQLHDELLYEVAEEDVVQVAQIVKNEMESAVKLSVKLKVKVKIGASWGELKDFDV
Protocol: The ability of the compounds of Formula (I) or Formula (II) to inhibit polymerase activity of Pol theta was determined using the primer extension assay as set forth below.
A mixture of 20 uL of Pol theta polymerase domain (residues 1819-2590) at a final concentration of 4 nM in assay buffer (20 m M TRIS, pH 7.80, 50 mM KCl, 10 mM MgCl2, 1 mM DTT, 0.01% BSA, 0.01% Tween20) was added to test compounds (11-point dilution series of test compounds) except the low control wells without test compounds. The above enzyme and test compound inhibitor mixture was then incubated at room temperature for 15 min. An equal volume (20 μl) of dNTP substrate mixture (48 μM) and primed molecular beacon DNA (obtained by annealing template SEQ ID NO:2: (5′-CCTTCCTCCCGTGTCTTG-TACCTTCCCGTCA-GGAGGAAGG-3′) with 5′-TAMRA and 3′-BHQ and primer DNA (SEQ ID NO:3; 5′-GACGGGAAGG-3′) in 10 mM Tris-HCl pH 8.0, 100 mM NaCl buffer) (96 nM) in assay buffer was added to all the test wells. The inhibition activity was measured by monitoring the fluorescence change over 30 min at 535 nm upon excitation at 485 nm. The high control (DMSO with enzyme) with high fluorescence intensity represents no inhibition of polymerase reaction while the low control (DMSO with buffer) with low fluorescence intensity represents full inhibition of polymerase activity. Slope of the reaction progress curves were used to calculate the rate of polymerization. The rates were used to determine the percent inhibition using a four-parameter inhibition model to generate IC50, Hill slope and max inhibition.

[2] = biological target: T2, Pol theta (residues 1819-2590) (Homo sapiens, UniProt O75417); test: PPi assay (inhibition of polymerase activity of Pol theta, PPiLite luminescence); assay type: biochemical; conditions: Pol theta 2.8 nM; luminescence kinetic mode 90 min
T2 construct: Pol theta polymerase domain (residues 1819-2590) at a final concentration of 4 nM
T2 sequence (O75417 1819-2590): T1 sequence (O75417 1819-2590)
Protocol: The ability of the compounds of Formula (I) or Formula (II) to inhibit polymerase activity of Pol theta was determined using the PPi assay as set forth below.
A mixture of template DNA strand (SEQ ID NO:4: 5′ ATTACTGACCTCATACTTCTGCCCTTCCATGTTCTGTGCCCTCCTTCC 3′) and primer DNA strand (SEQ ID NO:5: 5′ GGA AGG AGG GCA CAG AAC 3′) was annealed in 10 mM Tris-HCl pH 8.0, […] buffer to form the primed DNA substrate. A 10-point dilution series of compounds were used in a 384 well format for the inhibition assay. Pol theta (residues 1819-2590) (2.8 nM) in assay buffer (20 mM Tris-HCl pH 7.8, 50 mM KCl, 10 mM MgCl2, 1 mM DTT, 0.01% BSA, 0.01% Tween-20) was transferred to the test wells (10 uL), except for the low control wells. The plate was then incubated at room temperature for 15 mins. An equal volume (10 μL) of dNTP substrate (40 μM) and primed DNA substrate (800 nM) in assay buffer was added to all the test wells. 20 μL of PPi detection reagent (PPiLite inorganic pyrophosphate assay, Lonzo) was then added to all test wells. The plate was then centrifuged at 1000 rpm for 1 min. The reaction was monitored in a Tecan M1000 Pro plate reader in luminescence kinetic mode for 90 min. The high control (DMSO with enzyme) with high luminescence represents no inhibition of the polymerase reaction while the low control (DMSO with buffer) with low luminescence represents full inhibition of the polymerase activity. Slope of the reaction progress curves were used to calculate the rate of polymerization. The rates were used to determine the percent inhibition using a four-parameter inhibition model to generate IC50, Hill slope, maximum inhibition, and minimum inhibition.

Structure (SMILES): CN(C(=O)C1CCCN1c1cc(C(F)(F)F)cc(C(F)(F)F)n1)c1ccc(F)cc1 (stereo not drawn) [1.001, 1-(4,6-bis(trifluoromethyl)pyridin-2-yl)-N-(4-fluorophenyl)-N-methylpyrrolidine-2-carboxamide]
- IC50 [1]: ≤ 200 nM

Structure (SMILES): CN(C(=O)C1CCCN1c1ccccc1)c1ccccc1 (stereo not drawn) [1.004, N-methyl-N,1-diphenylpyrrolidine-2-carboxamide]
- IC50 [1]: 1000 to 10000 nM

Structure (SMILES): CN(C(=O)C1CCN1c1cc(C(F)(F)F)cc(C(F)(F)F)n1)c1ccc(F)cc1 (stereo not drawn) [1.005, 1-(4,6-bis(trifluoromethyl)pyridin-2-yl)-N-(4-fluorophenyl)-N-methylazetidine-2-carboxamide]
- IC50 [1]: ≤ 200 nM

Structure (SMILES): CN(C(=O)C1CCCCN1c1cc(C(F)(F)F)cc(C(F)(F)F)n1)c1ccc(F)cc1 (stereo not drawn) [1.007, 1-(4,6-bis(trifluoromethyl)pyridin-2-yl)-N-(4-fluorophenyl)-N-methylpiperidine-2-carboxamide]
- IC50 [1]: ≤ 200 nM

Structure (SMILES): Fc1ccc(-c2cccnc2C2CCCN2c2cc(C(F)(F)F)cc(C(F)(F)F)n2)cc1 (stereo not drawn) [1.008, 2-(2-(3-(4-fluorophenyl)pyridin-2-yl)pyrrolidin-1-yl)-4,6-bis(trifluoromethyl)pyridine]
- IC50 [1]: ≤ 200 nM

Structure (SMILES): CN(C(=O)[C@@H]1CCCN1c1cc(C(F)(F)F)cc(C(F)(F)F)n1)c1ccc(Br)cc1 [1.009, (S)-1-(4,6-bis(trifluoromethyl)pyridin-2-yl)-N-(4-bromophenyl)-N-methylpyrrolidine-2-carboxamide]
- IC50 [1]: ≤ 200 nM

Structure (SMILES): CN(C(=O)[C@@H]1CCCN1c1cc(C(F)(F)F)cc(C(F)(F)F)n1)c1ccc2occc2c1 [1.010, (S)-N-(benzofuran-5-yl)-1-(4,6-bis(trifluoromethyl)pyridin-2-yl)-N-methylpyrrolidine-2-carboxamide]
- IC50 [1]: ≤ 200 nM

Structure (SMILES): CN(C(=O)[C@@H]1CCCN1c1cc(C(F)(F)F)cc(C(F)(F)F)n1)c1ccncc1 [1.011, (S)-1-(4,6-bis(trifluoromethyl)pyridin-2-yl)-N-methyl-N-(pyridin-4-yl)pyrrolidine-2-carboxamide]
- IC50 [1]: ≤ 200 nM

Structure (SMILES): O=C([C@@H]1CCCN1c1cc(C(F)(F)F)cc(C(F)(F)F)n1)N(c1ccc(F)cc1)C1CC1 [1.012, (S)-1-(4,6-bis(trifluoromethyl)pyridin-2-yl)-N-cyclopropyl-N-(4-fluorophenyl)pyrrolidine-2-carboxamide]
- IC50 [1]: ≤ 200 nM

Structure (SMILES): CN(C(=O)[C@@H]1C[C@H](O)CN1c1cc(C(F)(F)F)cc(C(F)(F)F)n1)c1ccc(F)cc1 [1.013, (2S,4S)-1-(4,6-bis(trifluoromethyl)pyridin-2-yl)-N-(4-fluorophenyl)-4-hydroxy-N-methylpyrrolidine-2-carboxamide]
- IC50 [1]: ≤ 200 nM

Structure (SMILES): CN(C(=O)[C@@H]1CCCN1c1cc(C(F)(F)F)ccn1)c1ccc(F)cc1 [1.014, (S)-N-(4-fluorophenyl)-N-methyl-1-(4-(trifluoromethyl)pyridin-2-yl)pyrrolidine-2-carboxamide]
- IC50 [1]: ≤ 200 nM

Structure (SMILES): CN(C(=O)[C@@H]1CCCN1c1cccc(C(F)(F)F)n1)c1ccc(F)cc1 [1.015, (S)-N-(4-fluorophenyl)-N-methyl-1-(6-(trifluoromethyl)pyridin-2-yl)pyrrolidine-2-carboxamide]
- IC50 [1]: ≤ 200 nM

Structure (SMILES): CN(C(=O)[C@@H]1C[C@@H](O)CN1c1cc(C(F)(F)F)cc(C(F)(F)F)n1)c1ccc(F)cc1 [1.016, (2S,4R)-1-(4,6-bis(trifluoromethyl)pyridin-2-yl)-N-(4-fluorophenyl)-4-hydroxy-N-methylpyrrolidine-2-carboxamide]
- IC50 [1]: ≤ 200 nM

Structure (SMILES): CN(C(=O)C1CCCN1c1nc(C(F)(F)F)cc(C(F)(F)F)n1)c1ccc(F)cc1 (stereo not drawn) [1.017, 1-(4,6-bis(trifluoromethyl)pyrimidin-2-yl)-N-(4-fluorophenyl)-N-methylpyrrolidine-2-carboxamide]
- IC50 [1]: ≤ 200 nM

Structure (SMILES): CN(C(=O)[C@@H]1CCCN1c1cc(C(F)(F)F)cc(C(F)(F)F)n1)c1cccc(C#N)c1 [1.018, (S)-1-(4,6-bis(trifluoromethyl)pyridin-2-yl)-N-(3-cyanophenyl)-N-methylpyrrolidine-2-carboxamide]
- IC50 [1]: ≤ 200 nM

Structure (SMILES): C[C@H]1CC[C@@H](C(=O)N(C)c2ccc(F)cc2)N1c1cc(C(F)(F)F)cc(C(F)(F)F)n1 [1.021, (2S,5S)-1-(4,6-bis(trifluoromethyl)pyridin-2-yl)-N-(4-fluorophenyl)-N,5-dimethylpyrrolidine-2-carboxamide]
- IC50 [2]: ≤ 200 nM

Structure (SMILES): C[C@@H]1CC[C@@H](C(=O)N(C)c2ccc(F)cc2)N1c1cc(C(F)(F)F)cc(C(F)(F)F)n1 [1.023, (2S,5R)-1-(4,6-bis(trifluoromethyl)pyridin-2-yl)-N-(4-fluorophenyl)-N,5-dimethylpyrrolidine-2-carboxamide]
- IC50 [2]: 500 to 1000 nM

Structure (SMILES): CN(C(=O)[C@@H]1CCN1c1nc(C(F)(F)F)cc(C(F)(F)F)c1C#N)c1ccc(F)cc1 [1.025, (S)-1-(3-cyano-4,6-bis(trifluoromethyl)pyridin-2-yl)-N-(4-fluorophenyl)-N-methylazetidine-2-carboxamide]
- IC50 [2]: ≤ 200 nM

Structure (SMILES): Fc1ccc(-c2cccnc2[C@@H]2CCCN2c2cc(C(F)(F)F)cc(C(F)(F)F)n2)cc1 [1.026, (S)-2-(2-(3-(4-fluorophenyl)pyridin-2-yl)pyrrolidin-1-yl)-4,6-bis(trifluoromethyl)pyridine]
- IC50 [2]: ≤ 200 nM

Structure (SMILES): Fc1ccc(-c2cccnc2[C@H]2CCCN2c2cc(C(F)(F)F)cc(C(F)(F)F)n2)cc1 [1.027, (R)-2-(2-(3-(4-fluorophenyl)pyridin-2-yl)pyrrolidin-1-yl)-4,6-bis(trifluoromethyl)pyridine]
- IC50 [2]: 1000 to 10000 nM

Structure (SMILES): O=C([C@@H]1CCCN1c1cc(C(F)(F)F)cc(C(F)(F)F)n1)N(c1ccccc1)c1ccccc1 [1.028, (S)-1-(4,6-bis(trifluoromethyl)pyridin-2-yl)-N,N-diphenylpyrrolidine-2-carboxamide]
- IC50 [2]: 1000 to 10000 nM

Structure (SMILES): CN(C(=O)[C@@H]1[C@H](O)CCN1c1cc(C(F)(F)F)cc(C(F)(F)F)n1)c1ccc(F)cc1 [1.029, (2S,3R)-1-(4,6-bis(trifluoromethyl)pyridin-2-yl)-N-(4-fluorophenyl)-3-hydroxy-N-methylpyrrolidine-2-carboxamide]
- IC50 [2]: ≤ 200 nM

Structure (SMILES): O=C([C@@H]1CCCN1c1cc(C(F)(F)F)cc(C(F)(F)F)n1)N(c1ccc(F)cc1)C1COC1 [1.030, (S)-1-(4,6-bis(trifluoromethyl)pyridin-2-yl)-N-(4-fluorophenyl)-N-(oxetan-3-yl)pyrrolidine-2-carboxamide]
- IC50 [2]: ≤ 200 nM

Structure (SMILES): Cc1cc(C)nc(N2CCC[C@H]2C(=O)N(C)c2ccc(F)cc2)c1 [1.031, (S)-1-(4,6-dimethylpyridin-2-yl)-N-(4-fluorophenyl)-N-methylpyrrolidine-2-carboxamide]
- IC50 [1]: 200 to 500 nM
